This passage reports IC50 results from US20100184989A1, “De Novo Synthesis of Conjugates” (Nektar Therapeutics, priority 2007, published 2010).

Sequence of calcium channel type L (P22002 whole entry): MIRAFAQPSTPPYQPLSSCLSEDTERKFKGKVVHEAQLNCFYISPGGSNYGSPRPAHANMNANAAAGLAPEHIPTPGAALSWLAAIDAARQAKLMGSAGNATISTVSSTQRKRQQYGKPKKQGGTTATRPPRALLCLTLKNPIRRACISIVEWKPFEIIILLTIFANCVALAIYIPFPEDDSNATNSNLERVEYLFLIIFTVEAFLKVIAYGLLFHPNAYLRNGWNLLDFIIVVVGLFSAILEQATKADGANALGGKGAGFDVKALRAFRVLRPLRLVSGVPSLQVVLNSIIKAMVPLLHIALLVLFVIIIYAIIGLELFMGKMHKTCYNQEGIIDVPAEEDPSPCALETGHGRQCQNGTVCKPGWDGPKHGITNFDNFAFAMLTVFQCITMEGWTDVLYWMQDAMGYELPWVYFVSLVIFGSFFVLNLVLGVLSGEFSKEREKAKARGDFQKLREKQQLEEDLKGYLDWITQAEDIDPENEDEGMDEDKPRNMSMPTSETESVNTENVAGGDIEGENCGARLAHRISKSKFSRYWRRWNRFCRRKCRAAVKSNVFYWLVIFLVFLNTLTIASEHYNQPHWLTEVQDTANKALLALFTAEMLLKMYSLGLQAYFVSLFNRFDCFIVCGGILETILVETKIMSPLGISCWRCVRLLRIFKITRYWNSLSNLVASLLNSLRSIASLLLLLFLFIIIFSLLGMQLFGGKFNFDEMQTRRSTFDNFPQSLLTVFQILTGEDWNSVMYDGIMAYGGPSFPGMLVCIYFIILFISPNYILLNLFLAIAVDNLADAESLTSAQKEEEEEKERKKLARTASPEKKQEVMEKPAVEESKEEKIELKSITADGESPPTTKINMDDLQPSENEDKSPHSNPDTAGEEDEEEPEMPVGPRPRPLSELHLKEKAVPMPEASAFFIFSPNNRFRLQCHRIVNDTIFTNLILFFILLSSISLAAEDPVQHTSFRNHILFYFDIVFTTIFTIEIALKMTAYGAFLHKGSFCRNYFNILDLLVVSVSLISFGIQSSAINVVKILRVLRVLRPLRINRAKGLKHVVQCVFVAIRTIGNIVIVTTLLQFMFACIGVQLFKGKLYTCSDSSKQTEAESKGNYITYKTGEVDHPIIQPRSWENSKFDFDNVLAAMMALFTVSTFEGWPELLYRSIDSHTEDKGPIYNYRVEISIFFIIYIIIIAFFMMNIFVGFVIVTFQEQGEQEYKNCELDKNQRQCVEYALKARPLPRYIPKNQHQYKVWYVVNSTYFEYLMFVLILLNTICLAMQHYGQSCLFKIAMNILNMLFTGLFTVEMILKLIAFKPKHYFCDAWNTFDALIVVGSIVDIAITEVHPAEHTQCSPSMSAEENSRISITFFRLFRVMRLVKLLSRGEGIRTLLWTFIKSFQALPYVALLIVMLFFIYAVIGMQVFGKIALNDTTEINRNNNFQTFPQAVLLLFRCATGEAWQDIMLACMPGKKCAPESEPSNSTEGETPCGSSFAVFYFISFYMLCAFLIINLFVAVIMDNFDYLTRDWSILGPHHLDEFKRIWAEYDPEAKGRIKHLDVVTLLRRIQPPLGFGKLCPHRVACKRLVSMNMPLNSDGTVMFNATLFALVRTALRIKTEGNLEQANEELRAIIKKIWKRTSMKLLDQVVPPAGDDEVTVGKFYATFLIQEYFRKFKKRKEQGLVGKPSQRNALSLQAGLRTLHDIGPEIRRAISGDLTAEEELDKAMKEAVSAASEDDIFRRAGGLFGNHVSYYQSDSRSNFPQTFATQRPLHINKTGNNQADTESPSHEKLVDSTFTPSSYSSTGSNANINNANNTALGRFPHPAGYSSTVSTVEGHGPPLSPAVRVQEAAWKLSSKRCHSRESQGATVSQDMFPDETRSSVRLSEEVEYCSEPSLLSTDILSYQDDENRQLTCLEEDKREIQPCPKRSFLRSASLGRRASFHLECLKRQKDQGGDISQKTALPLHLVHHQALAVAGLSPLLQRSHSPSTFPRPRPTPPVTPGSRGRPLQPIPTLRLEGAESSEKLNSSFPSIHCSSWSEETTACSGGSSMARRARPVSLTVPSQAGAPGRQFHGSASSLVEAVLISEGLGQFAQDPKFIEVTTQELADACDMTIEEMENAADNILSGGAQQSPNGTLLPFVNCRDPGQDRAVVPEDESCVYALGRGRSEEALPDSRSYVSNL

For the assay, the target named is calcium channel type L (Rattus norvegicus, UniProt P22002). In words: Calcium channel type L binding assay, [3H]Nitrendipine displacement. To be noted: rat cortical membranes; [3H]Nitrendipine 0.2 nM; 50 mM TRIS-HCl pH 7.7, 25° C., 60 minutes; nifedipine reference value given beside each test compound. How it is done:
In the assay, rat cortical membranes were used as a receptor source and the radioligand [^3H]Nitrendipine (70-87 Ci/mmol) was used at a final ligand concentration of 0.2 nM. […] The reactions were carried out in 50 mM TRIS-HCl (pH 7.7) at 25° C. for 60 minutes. The reaction was terminated by rapid vacuum filtration onto glass fiber filters. Radioactivity trapped onto the filters was determined and compared to control values in order to ascertain any interactions of test compound with the nitredipine binding site (Gould, Murphy, and Snyder. Molecular Pharmacology 25, 235-241 (1984)).
`COCCOCCOCCOC(=O)C1=C(C)NC(C)=C(C(=O)OCCOCCOCCOC)C1c1ccccc1[N+](=O)[O-]` [compound (2) from Example 1, 2,6-dimethyl 4-(2-nitrophenyl)-1,4-dihydropyridine-3,5-dicarboxylic acid dimethoxy tri(ethylene glycol)ester]: the IC50 was determined as 160 nM.
In the case of `CCCCOCCOCCOC(=O)C1=C(C)NC(C)=C(C(=O)OCCOCCOCCCC)C1c1ccccc1[N+](=O)[O-]` [compound (6b) from Example 3, 2,6-dimethyl 4-(2-nitrophenyl)-1,4-dihydropyridine-3,5-dicarboxylic acid dibutoxy di(ethylene glycol)ester], the IC50 was found to be 15.5 nM.
Consider `CCCCCCOCCOCCOC(=O)C1=C(C)NC(C)=C(C(=O)OCCOCCOCCCCCC)C1c1ccccc1[N+](=O)[O-]` [compound (6c) from Example 3, 2,6-dimethyl 4-(2-nitrophenyl)-1,4-dihydropyridine-3,5-dicarboxylic acid dihexoxy di(ethylene glycol)Ester], for which the IC50 came to 55.6 nM.
In the case of `COCCOCCOC(=O)C1=C(C)NC(C)=C(C(=O)OCCOCCOC)C1c1ccccc1[N+](=O)[O-]` [compound (6a) from Example 3, 2,6-dimethyl 4-(2-nitrophenyl)-1,4-dihydropyridine-3,5-dicarboxylic acid dimethoxy di(ethylene glycol)ester], the IC50 worked out at 67.4 nM.

Usually IC50 stands for the concentration at which inhibition is half-maximal.
